Experimental data taken from paper PMC11851430, “Workflow for E3 Ligase Ligand Validation for PROTAC Development” (ACS Chemical Biology, 2025).

Columns and labels:
[1] = target: T1, kinase protein levels in MCF-7 cells (Homo sapiens, UniProt A0A096LP01); experiment: TMT-labeled quantitative proteomics; type: cell-based; details: MCF7, 1 µM
T1 construct: endogenous in cells; host or cells: MCF-7
Description: (§1) 50 µl of SDS Lysis Buffer (2% SDS, 50 mM TRIS pH 8.5, 10 mM TCEP, 40 mM CAA) was added to each sample. Cells were transferred into low binding reaction tubes (Eppendorf:
(§2) Methanol/Chloroform Precipitation. 200 µl of methanol and 50 µl of chloroform were added to each sample reaction tube and mixed via vortex. 150 µl of milliQ-H2O were added and samples were vortexed further. Samples were centrifuged for 5 minutes at 15000 g and the aqueous layer above the interphase was removed. 150 µl of methanol was added, samples were vortexed and centrifuged for 10 minutes at 15000 g to precipitate the pellet. The aforementioned wash procedure was repeated twice before transferring the pellet to a new low bind reaction tube in which it was allowed to dry for 5 minutes.
(§3) Dissolving the Protein Pellet and Protein Quantification. 50 µl of digestion buffer (8 M Urea, 50 mM TRIS pH 8) was added to each sample before vortexing and shaking at 750 rpm at room temperature for 10 minutes to solubilize the pellet. Protein quantification via PierceTM […]
(§4) Protein Digestion. Samples were diluted 1:2 with 50 mM TRIS pH 8.5 to reach a final concentration of 4 M Urea. Lys-C (Promega: VA1170) was added at a 1:100 enzyme/substrate ratio. Samples were agitated at 550 rpm and 37 °C for 3 h. Samples were further diluted with 50 mM TRIS pH 8.5 to a final concentration of 1 M Urea and Trypsin (Promega: V5280) was added at a 1:100 enzyme/substrate ratio. Samples were agitated overnight at 550 rpm and 37 °C. The digestion was stopped the following day via addition of TFA to a final concentration […]
(§5) Solid Phase Extraction via C18 Cartridges. Sep-Pak C18 Cartridges (Waters: WAT054955) were used for solid phase extraction of digested peptides. For preconditioning of C18 cartridges, 1 mL of methanol was added to each column followed by 1 mL of solution B (0.1% formic acid, 80% acetonitrile) and 1 mL of solution A (0.1% formic acid, ddH2O) twice. Samples […]
(§6) were loaded to their respective columns and once samples had passed, columns were washed twice with solution A to remove unwanted components from the loading step. Elution of samples was carried out via introduction of 40% and 60% acetonitrile steps. Samples were dried and snap frozen in liquid nitrogen.
(§7) TMT-Labeling. Desalted peptides were dried and resuspended in TMT-labeling buffer (200 mM EPPS pH 8.2, 20% acetonitrile). 10 μg of peptides per condition were subjected to TMT labeling with 1:2.5 peptide TMT ratio (w/w) for 1 h at room temperature. The labeling reaction was quenched by addition of hydroxylamine to a final concentration of 0.5% and incubation at room temperature for 15 minutes. Successful TMT labeling was verified by mixing equimolar ratios of peptides and subjecting the mix to single shot LC-MS/MS analysis. For high pH reversed phase fractionation on a Dionex analytical HPLC, 50 µg of pooled and purified TMT labelled samples were resuspended in 10 mM ammonium-bicarbonate (ABC), 5% acetonitrile, and separated on a 250 mm long C18 column (Aeris Peptide XB-C18, 4.6 mm ID, 2.6 µm particle size; Phenomenex) using a multistep gradient from 100% solvent A (5% acetonitrile, 10 mM ABC in water) to 60% solvent B (90% acetonitrile, 10 mM ABC in water) over 70 minutes. Eluting peptides were collected every 45 seconds into a total of 96 fractions, which were cross-concatenated into 24 fractions and dried in a vacuum concentrator and resuspended in 3% acetonitrile with 0.1% TFA for LC-MS analysis.
(§8) Mass spectrometry data acquisition. Tryptic peptides were analyzed on an Orbitrap Lumos coupled to an easy nLC 1200 (ThermoFisher Scientific) using a 35 cm long, 75 µm ID fused-silica column packed in house with 1.9 µm C18 particles (Reprosil pur, Dr. Maisch), and kept at 50 °C using an integrated column oven (Sonation). HPLC solvents consisted of 0.1% formic acid in water (buffer A) and 0.1% formic acid and 80% acetonitrile in water (buffer B). Assuming

[2] = target: T2, kinase protein levels in MCF-7 cells (Homo sapiens, UniProt Q9BTL3); experiment: TMT-labeled quantitative proteomics; type: cell-based; details: protein FAM103A1; MCF7; 1 µM; set5
T2 construct: endogenous in cells; host or cells: MCF-7
Description: as §1, §2, §3, §4, §5, §6, §7, §8

[3] = tested on: kinase protein levels in MCF-7 cells; experiment: TMT-labeled quantitative proteomics; type: cell-based, human; details: for kinase degradation: MCF-7 cells, 1 μM, 6 h; for log2FC (compound/DMSO): MCF7, 1 µM, set5
Description: as §1, §2, §3, §4, §5, §6, §7, §8

VHL = VHL (Homo sapiens, UniProt P40337); experiment: cell-based; design: full-length, NanoLuc fusion (Promega N2741); species or system HEK293T; NanoBRET VHL tracer displacement in permeabilized cells, NanoLuc-VHL fusion; details: permeabilized cells; read-out: VHL permeabilized (IC50±sd)/µM
full-length AAK1 = full-length AAK1 (Homo sapiens, UniProt Q2M2I8); experiment: NanoBRET target engagement assay, intact and permeabilized cells
Description: (§9) Compounds were pipetted at various concentrations using an Echo acoustic dispenser (Labcyte), immediately followed by Tracer K10 (Promega, Tracer DB ID: T000008) for AAK1 and Aurora A and VHL Tracer (Promega, Tracer DB ID: T000019) for VHL, at an optimum KD concentration chosen from TracerDB ( tracerdb.org), respectively.
(§10) To measure the BRET signal, the NanoBRET® NanoGlo Substrate (Promega:
(§11) N1573) was added as per the manufacturer’s protocol, and filtered luminescence was measured on a PHERAstar plate reader (BMG Labtech) equipped with a luminescence filter pair (450 nm BP filter (donor) and 610 nm LP filter (acceptor)). For NanoBRET® measurement in permeabilized cells, 25 nL of digitonin (0.05 μg/μL) was pipetted into each well using an
(§12) After incubation, the BRET signals were measured by a PHERAstar plate reader (BMG Labtech) following the same procedure as intact NanoBRET® measurement. Competitive displacement data were then normalized to controls and were plotted using GraphPad Prism 9 software employing a normalized 3-parameter curve fit with the following equation:

AURKA = target: T3, AURKA (Homo sapiens, UniProt O14965); experiment: as above; details: mean of duplicates, ^a values estimated by extrapolation
T3 sequence (O14965 1-403): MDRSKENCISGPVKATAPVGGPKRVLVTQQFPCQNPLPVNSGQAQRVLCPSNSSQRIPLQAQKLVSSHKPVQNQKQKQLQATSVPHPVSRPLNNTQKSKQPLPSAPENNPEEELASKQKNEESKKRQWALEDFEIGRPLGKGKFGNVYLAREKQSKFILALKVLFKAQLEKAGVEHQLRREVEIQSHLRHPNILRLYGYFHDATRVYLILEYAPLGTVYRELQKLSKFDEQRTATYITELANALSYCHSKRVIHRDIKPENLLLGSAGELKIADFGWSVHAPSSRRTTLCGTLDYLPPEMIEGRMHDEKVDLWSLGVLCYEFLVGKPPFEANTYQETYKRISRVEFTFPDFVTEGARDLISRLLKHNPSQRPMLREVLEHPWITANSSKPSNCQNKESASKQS
Description: as §9, §10, §11, §12

[4] = target: T4, kinase protein levels in MCF-7 cells (Homo sapiens, UniProt A0A024RBG1); experiment: TMT-labeled quantitative proteomics; type: cell-based; details: protein NUDT4B; MCF7; 1 µM; set2
T4 construct: endogenous in cells; host or cells: MCF-7
Description: as §1, §2, §3, §4, §5, §6, §7, §8

[5] = target: T5, kinase protein levels in MCF-7 cells (Homo sapiens, UniProt A0A0B4J2F0); experiment: TMT-labeled quantitative proteomics; type: cell-based; details: protein PIGBOS1; MCF7; 1 µM; set2
T5 construct: endogenous in cells; host or cells: MCF-7
T5 sequence (A0A0B4J2F0 1-54): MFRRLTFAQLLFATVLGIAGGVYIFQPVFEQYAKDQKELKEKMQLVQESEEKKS
Description: as §1, §2, §3, §4, §5, §6, §7, §8

[6] = target: T6, kinase protein levels in MCF-7 cells (Homo sapiens, UniProt A0A0U1RRE5); experiment: TMT-labeled quantitative proteomics; type: cell-based; details: protein NBDY; MCF7; 1 µM; set2
T6 construct: endogenous in cells; host or cells: MCF-7
T6 sequence (A0A0U1RRE5 1-68): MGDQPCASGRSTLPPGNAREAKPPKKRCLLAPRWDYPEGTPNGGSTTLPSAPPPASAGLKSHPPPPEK
Description: as §1, §2, §3, §4, §5, §6, §7, §8

[7] = target: T7, kinase protein levels in MCF-7 cells (Homo sapiens, UniProt P0DPI2); experiment: TMT-labeled quantitative proteomics; type: cell-based; details: protein GATD3; MCF7; 1 µM; set2
T7 construct: endogenous in cells; host or cells: MCF-7
T7 sequence (P0DPI2 42-268): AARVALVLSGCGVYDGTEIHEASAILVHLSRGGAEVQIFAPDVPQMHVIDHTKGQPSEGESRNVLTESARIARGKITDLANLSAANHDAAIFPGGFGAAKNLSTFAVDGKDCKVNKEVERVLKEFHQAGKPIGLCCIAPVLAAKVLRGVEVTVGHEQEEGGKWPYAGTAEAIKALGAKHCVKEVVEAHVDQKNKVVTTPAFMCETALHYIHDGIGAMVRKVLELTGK
Description: as §1, §2, §3, §4, §5, §6, §7, §8

Jurkat cells = experiment: CellTiterGlo cell viability assay; type: cell-based, human; details: 24 h
Description: The effects of the compounds on cell viability was determined using the CellTiter-Glo® 2.0 Cell Viability Assay (Promega: G9241) following manufacturer’s protocol. Ten µL of Jurkat cells at […]
After equilibration, PROTACs were titrated at various concentrations using an Echo acoustic […]
volume of CellTiter-Glo® 2.0 reagent (10 µL) was added to each well and cells were incubated for 10 minutes at room temperature. Filtered luminescence was measured on a PHERAstar plate reader (BMG Labtech) and data was evaluated using GraphPad Prism 9 software employing a normalized curve it with the following equation: Y=Bottom + (Top-Bottom)/(1+10(LogEC50-X) *HillSlope).
Sample preparation. Jurkat cells (ATCC © HTB-22) were cultured in RPMI (Thermo: […]

[8] = protein NBPF19;NBPF15;NBPF8;NBPF10;NBPF3;NBPF11;NBPF26;NBPF14;NBPF1;NBPF12
[9] = AAK1 intact (IC50±sd)/μM, NanoBRET, intact cells, mean of duplicates, ^a values estimated by extrapolation
[10] = AAK1 permeabilized (IC50±sd)/μM, NanoBRET, permeabilized cells, mean of duplicates
[11] = AURKA intact (IC50±sd)/μM, intact cells
[12] = AURKA permeabilized (IC50±sd)/μM, permeabilized cells

T1 sequence (A0A096LP01 whole entry): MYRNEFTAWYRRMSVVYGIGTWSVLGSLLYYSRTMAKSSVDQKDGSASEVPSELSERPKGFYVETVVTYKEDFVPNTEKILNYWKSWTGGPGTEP
T2 sequence (Q9BTL3 whole entry): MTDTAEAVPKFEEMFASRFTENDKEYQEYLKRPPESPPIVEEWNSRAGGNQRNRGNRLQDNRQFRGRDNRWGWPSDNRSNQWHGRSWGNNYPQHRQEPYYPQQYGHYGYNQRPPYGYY
VHL, sequence (P40337 whole entry, the tested form may be a part): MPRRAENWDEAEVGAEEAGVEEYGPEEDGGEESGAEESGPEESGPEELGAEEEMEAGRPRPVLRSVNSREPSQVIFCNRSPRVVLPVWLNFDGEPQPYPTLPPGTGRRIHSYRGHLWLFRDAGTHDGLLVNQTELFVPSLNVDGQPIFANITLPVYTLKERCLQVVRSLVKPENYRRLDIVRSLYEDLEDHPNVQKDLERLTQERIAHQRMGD
full-length AAK1, sequence (Q2M2I8 whole entry): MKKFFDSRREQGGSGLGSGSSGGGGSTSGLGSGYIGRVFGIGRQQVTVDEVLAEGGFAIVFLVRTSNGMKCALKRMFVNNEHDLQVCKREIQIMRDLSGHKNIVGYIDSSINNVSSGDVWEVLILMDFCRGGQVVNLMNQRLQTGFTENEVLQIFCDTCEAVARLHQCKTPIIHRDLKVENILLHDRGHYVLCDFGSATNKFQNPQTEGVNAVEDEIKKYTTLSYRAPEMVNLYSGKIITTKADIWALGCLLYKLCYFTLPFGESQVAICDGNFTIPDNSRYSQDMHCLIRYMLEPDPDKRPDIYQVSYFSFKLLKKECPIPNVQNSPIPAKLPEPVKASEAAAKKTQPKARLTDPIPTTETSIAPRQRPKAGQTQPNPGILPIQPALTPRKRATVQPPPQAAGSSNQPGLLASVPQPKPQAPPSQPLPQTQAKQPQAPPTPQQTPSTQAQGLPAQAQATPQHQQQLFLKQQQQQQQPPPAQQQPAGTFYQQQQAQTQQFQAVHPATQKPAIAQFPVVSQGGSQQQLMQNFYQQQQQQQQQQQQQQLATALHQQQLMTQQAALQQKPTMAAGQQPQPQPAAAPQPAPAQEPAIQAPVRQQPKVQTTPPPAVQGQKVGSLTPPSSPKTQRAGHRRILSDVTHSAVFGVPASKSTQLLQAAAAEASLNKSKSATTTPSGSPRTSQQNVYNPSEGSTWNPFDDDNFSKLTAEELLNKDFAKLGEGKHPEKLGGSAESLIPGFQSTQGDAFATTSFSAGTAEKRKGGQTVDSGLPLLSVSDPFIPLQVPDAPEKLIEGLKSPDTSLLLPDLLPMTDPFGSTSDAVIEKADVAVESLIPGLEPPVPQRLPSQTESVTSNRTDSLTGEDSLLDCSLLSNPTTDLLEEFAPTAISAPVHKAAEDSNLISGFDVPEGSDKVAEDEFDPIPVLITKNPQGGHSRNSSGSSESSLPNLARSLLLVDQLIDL
T4 sequence (A0A024RBG1 whole entry): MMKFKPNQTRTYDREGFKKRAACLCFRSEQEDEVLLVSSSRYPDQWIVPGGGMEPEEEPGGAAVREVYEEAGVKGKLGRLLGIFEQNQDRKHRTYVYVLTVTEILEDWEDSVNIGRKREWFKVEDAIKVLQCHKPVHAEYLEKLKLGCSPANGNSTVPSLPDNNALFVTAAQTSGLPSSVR

| Compound | P.Value (compound/DMSO) ([1]; protein LINC00493, set5) | log2FC (compound/DMSO) ([1]; protein LINC00493, set5) | P.Value (compound/DMSO) [2] | log2FC (compound/DMSO) [2] | kinase degradation [3] | log2FC (compound/DMSO) ([3]; protein ARHGEF5;ARHGEF35) | log2FC (compound/DMSO) [3, 8] | IC50 (VHL) [µM] | IC50 (full-length AAK1; [9]) [µM] | IC50 (full-length AAK1; [10]) [µM] | IC50 (AURKA; [11]) [µM] | IC50 (AURKA; [12]) [µM] | further results |
| --- | --- | --- | --- | --- | --- | --- | --- | --- | --- | --- | --- | --- | --- |
| Cc1ncsc1-c1ccc(CNC(=O)[C@@H]2C[C@@H](O)CN2C(=O)[C@@H](NC(=O)CCOCCOCCOCCOCCOCCOCCN2CCN(c3cc(Nc4cc(C5CC5)[nH]n4)nc(Nc4ccc(CC#N)cc4)n3)CC2)C(C)(C)C)cc1 [4-b] | 0.7132 | 0.05687 | 0.9701 | 0.005351 | did not result in significant degradation of any kinase | 0.1142 | 0.1563 | 0.97 ± 0.013 | ~1.84 | 0.081 | ~18.9 | 4.84 ± 2.01 | AAK1 intact (IC50±sd)/μM (full-length AAK1; NanoBRET, intact cells, mean of duplicates, ^a values estimated by extrapolation): single-digit micromolar; cell permeability / cell penetration (full-length AAK1; as shown by the NanoBRET data (intact vs permeabilized cells)): Inefficient cell penetration |
| Cc1ncsc1-c1ccc(CNC(=O)[C@@H]2C[C@@H](O)CN2C(=O)[C@@H](NC(=O)CCCCCCN2CCN(c3cc(Nc4cc(C5CC5)[nH]n4)nc(Nc4ccc(CC#N)cc4)n3)CC2)C(C)(C)C)cc1 [4-c] | 0.06841 | 0.3546 | 0.9983 | -0.0003068 | significant degradation of several kinases | 0.09465 | -0.3485 | 4.32 ± 1.46 | 0.443 ± 0.043 | 0.178 ± 0.029 | ~5.98 | 2.73 ± 0.78 |  |
| CC(=O)N[C@H](C(=O)N1C[C@H](O)C[C@H]1C(=O)NCc1ccc(-c2scnc2C)cc1OCCOCCOCCOCCOCCC(=O)N1CCN(c2cc(Nc3cc(C4CC4)[nH]n3)nc(Nc3ccc(CC#N)cc3)n2)CC1)C(C)(C)C [4-d] |  |  |  |  | did not result in significant degradation of any kinase |  |  | 0.366 ± 0.064 | 0.126 ± 0.033 | 0.038 ± 0.006 | 4.62 ± 1.12 | 1.52 ± 0.061 | P.Value (compound/DMSO) [4]: 0.1315; log2FC (compound/DMSO) [4]: -0.2481; P.Value (compound/DMSO) ([1]; protein SMIM26, set2): 0.9318; log2FC (compound/DMSO) ([1]; protein SMIM26, set2): 0.01005; P.Value (compound/DMSO) [5]: 0.6355; log2FC (compound/DMSO) [5]: 0.04834; P.Value (compound/DMSO) [6]: 0.03785; log2FC (compound/DMSO) [6]: -0.3975; P.Value (compound/DMSO) [7]: 0.2539; log2FC (compound/DMSO) [7]: -0.1491 |
| Cc1ncsc1-c1ccc(CNC(=O)[C@@H]2C[C@@H](O)CN2C(=O)[C@@H](NC(=O)CCOCCOCCN2CCN(c3ccc(Nc4ncc(Cl)c(Nc5ccccc5C(N)=O)n4)cc3)CC2)C(C)(C)C)cc1 [6-a] | 0.02321 | -0.4581 | 0.2865 | 0.1658 | significant degradation of several kinases | 0.1364 | -0.2637 | 1.123 ± 0.005 | 0.088 ± 0.003 | 0.028 ± 0.001 | 0.203 ± 0.01 | 0.105 ± 0.007 | effect on cell viability (cytotoxicity) (Jurkat cells): particularly pronounced effects on cell viability; IC50 (Jurkat cells; Homo sapiens, mean of triplicates, ^b/^c values estimated, read-out: IC50±sd/μM (cell viability)): ~0.8 µM |
